Data: PubChem BioAssay AID1259407 (Chemical Carcinogenesis Research Information System (CCRIS), 2018)
The source made the active and inactive calls. How the calls were made is not given here.

Test system: CCRIS mutagenicity, Ames/micronucleus/aberration tests
Experiment: CCRIS mutagenicity studies

Measured: mutagenic call

O=C(O)CN(CC(=O)O)CC(=O)O
inactive: Test System: AMES SALMONELLA TYPHIMURIUM, Strain/Indicator: TA1535, Metabolic Activation: NONE, Method: STANDARD PLATE inactive; negative | Test System: AMES SALMONELLA TYPHIMURIUM, Strain/Indicator: TA1535, Metabolic Activation: NONE, Method: SUSPENSION/PLATE inactive; negative | Test System: AMES SALMONELLA TYPHIMURIUM, Strain/Indicator: TA1535, Metabolic Activation: RAT, LIVER, S-9, AROCLOR 1254 (10 OR 30%), Method: PREINCUBATION inactive; negative | Test System: AMES SALMONELLA TYPHIMURIUM, Strain/Indicator: TA1535, Metabolic Activation: RAT, LIVER, S-9, AROCLOR 1254, Method: STANDARD PLATE inactive; negative | Test System: AMES SALMONELLA TYPHIMURIUM, Strain/Indicator: TA1535, Metabolic Activation: RAT, LIVER, S-9, Method: STANDARD PLATE inactive; negative | Test System: AMES SALMONELLA TYPHIMURIUM, Strain/Indicator: TA1537, Metabolic Activation: HAMSTER, LIVER, S-9, AROCLOR 1254 (10 OR 30%), Method: PREINCUBATION inactive; negative | Test System: AMES SALMONELLA TYPHIMURIUM, Strain/Indicator: TA1537, Metabolic Activation: HAMSTER, LIVER, S-9, AROCLOR 1254, Method: STANDARD PLATE inactive; negative | Test System: AMES SALMONELLA TYPHIMURIUM, Strain/Indicator: TA1537, Metabolic Activation: HAMSTER, LIVER, S-9, Method: STANDARD PLATE inactive; negative | Test System: AMES SALMONELLA TYPHIMURIUM, Strain/Indicator: TA1537, Metabolic Activation: MOUSE, LIVER, S-9, AROCLOR 1254, Method: STANDARD PLATE inactive; negative | Test System: AMES SALMONELLA TYPHIMURIUM, Strain/Indicator: TA1537, Metabolic Activation: MOUSE, LIVER, S-9, Method: STANDARD PLATE inactive; negative | Test System: AMES SALMONELLA TYPHIMURIUM, Strain/Indicator: TA1537, Metabolic Activation: NONE, Method: PREINCUBATION inactive; negative | Test System: AMES SALMONELLA TYPHIMURIUM, Strain/Indicator: TA1537, Metabolic Activation: NONE, Method: STANDARD PLATE inactive; negative | Test System: AMES SALMONELLA TYPHIMURIUM, Strain/Indicator: TA1537, Metabolic Activation: NONE, Method: SUSPENSION/PLATE inactive; negative | Test System: AMES SALMONELLA TYPHIMURIUM, Strain/Indicator: TA1537, Metabolic Activation: RAT, LIVER, S-9, AROCLOR 1254 (10 OR 30%), Method: PREINCUBATION inactive; negative | Test System: AMES SALMONELLA TYPHIMURIUM, Strain/Indicator: TA1537, Metabolic Activation: RAT, LIVER, S-9, AROCLOR 1254, Method: STANDARD PLATE inactive; negative | Test System: AMES SALMONELLA TYPHIMURIUM, Strain/Indicator: TA1537, Metabolic Activation: RAT, LIVER, S-9, Method: STANDARD PLATE inactive; negative | Test System: AMES SALMONELLA TYPHIMURIUM, Strain/Indicator: TA1538, Metabolic Activation: HAMSTER, LIVER, S-9, AROCLOR 1254, Method: STANDARD PLATE inactive; negative | Test System: AMES SALMONELLA TYPHIMURIUM, Strain/Indicator: TA1538, Metabolic Activation: HAMSTER, LIVER, S-9, Method: STANDARD PLATE inactive; negative | Test System: AMES SALMONELLA TYPHIMURIUM, Strain/Indicator: TA1538, Metabolic Activation: MOUSE, LIVER, S-9, AROCLOR 1254, Method: STANDARD PLATE inactive; negative | Test System: AMES SALMONELLA TYPHIMURIUM, Strain/Indicator: TA1538, Metabolic Activation: MOUSE, LIVER, S-9, Method: STANDARD PLATE inactive; negative | Test System: AMES SALMONELLA TYPHIMURIUM, Strain/Indicator: TA1538, Metabolic Activation: NONE, Method: STANDARD PLATE inactive; negative | Test System: AMES SALMONELLA TYPHIMURIUM, Strain/Indicator: TA1538, Metabolic Activation: RAT, LIVER, S-9, AROCLOR 1254, Method: STANDARD PLATE inactive; negative | Test System: AMES SALMONELLA TYPHIMURIUM, Strain/Indicator: TA1538, Metabolic Activation: RAT, LIVER, S-9, Method: STANDARD PLATE inactive; negative | Test System: Ames Salmonella typhimurium, Strain/Indicator: TA98, Metabolic Activation: None, Method: Plate incorporation inactive; negative | Test System: Ames Salmonella typhimurium, Strain/Indicator: TA98, Metabolic Activation: Rat, Kidney, S9, Aroclor 1254 with NADP, Method: Preincubation inactive; negative | Test System: Ames Salmonella typhimurium, Strain/Indicator: TA98, Metabolic Activation: Rat, Kidney, S9, Aroclor 1254 with arachidonic acid instead of NADP, Method: Preincubation inactive; negative | Test System: Ames Salmonella typhimurium, Strain/Indicator: TA98, Metabolic Activation: Rat, Liver, S9, Aroclor 1254, Method: Preincubation inactive; negative | Test System: Ames Salmonella typhimurium, Strain/Indicator: TA100, Metabolic Activation: None, Method: Plate incorporation inactive; negative | Test System: Ames Salmonella typhimurium, Strain/Indicator: TA100, Metabolic Activation: Rat, Kidney, S9, Aroclor 1254 with NADP, Method: Preincubation inactive; negative | Test System: Ames Salmonella typhimurium, Strain/Indicator: TA100, Metabolic Activation: Rat, Kidney, S9, Aroclor 1254 with arachidonic acid instead of NADP, Method: Preincubation inactive; negative | Test System: Ames Salmonella typhimurium, Strain/Indicator: TA100, Metabolic Activation: Rat, Liver, S9, Aroclor 1254, Method: Preincubation inactive; negative | Test System: Ames Salmonella typhimurium, Strain/Indicator: TA102, Metabolic Activation: None, Method: Plate incorporation inactive; negative. significant decrease at three highest doses. | Test System: Ames Salmonella typhimurium, Strain/Indicator: TA102, Metabolic Activation: Rat, Kidney, S9, Aroclor 1254 with NADP, Method: Preincubation inactive; negative | Test System: Ames Salmonella typhimurium, Strain/Indicator: TA102, Metabolic Activation: Rat, Kidney, S9, Aroclor 1254 with arachidonic acid instead of NADP, Method: Preincubation inactive; negative | Test System: Ames Salmonella typhimurium, Strain/Indicator: TA102, Metabolic Activation: Rat, Liver, S9, Aroclor 1254, Method: Preincubation inactive; negative | Test System: Ames Salmonella typhimurium, Strain/Indicator: TA1537, Metabolic Activation: None, Method: Plate incorporation inactive; negative | Test System: Ames Salmonella typhimurium, Strain/Indicator: TA1537, Metabolic Activation: Rat, Kidney, S9, Aroclor 1254 with NADP, Method: Preincubation inactive; negative | Test System: Ames Salmonella typhimurium, Strain/Indicator: TA1537, Metabolic Activation: Rat, Kidney, S9, Aroclor 1254 with arachidonic acid instead of NADP, Method: Preincubation inactive; negative | Test System: Ames Salmonella typhimurium, Strain/Indicator: TA1537, Metabolic Activation: Rat, Liver, S9, Aroclor 1254, Method: Preincubation inactive; negative | Test System: E. COLI, Strain/Indicator: WP2 UVRA, Metabolic Activation: HAMSTER, LIVER, S-9, AROCLOR 1254, Method: STANDARD PLATE inactive; negative | Test System: E. COLI, Strain/Indicator: WP2 UVRA, Metabolic Activation: HAMSTER, LIVER, S-9, Method: STANDARD PLATE inactive; negative | Test System: E. COLI, Strain/Indicator: WP2 UVRA, Metabolic Activation: MOUSE, LIVER, S-9, AROCLOR 1254, Method: STANDARD PLATE inactive; negative | Test System: E. COLI, Strain/Indicator: WP2 UVRA, Metabolic Activation: MOUSE, LIVER, S-9, Method: STANDARD PLATE inactive; negative | Test System: E. COLI, Strain/Indicator: WP2 UVRA, Metabolic Activation: NONE, Method: STANDARD PLATE inactive; negative | Test System: E. COLI, Strain/Indicator: WP2 UVRA, Metabolic Activation: RAT, LIVER, S-9, AROCLOR 1254, Method: STANDARD PLATE inactive; negative | Test System: E. COLI, Strain/Indicator: WP2 UVRA, Metabolic Activation: RAT, LIVER, S-9, Method: STANDARD PLATE inactive; negative | Test System: MOUSE LYMPHOMA, Strain/Indicator: L5178Y (TK+/TK-), Metabolic Activation: NONE, Method: SUSPENSION/PLATE inactive; negative | Test System: MOUSE LYMPHOMA, Strain/Indicator: L5178Y (TK+/TK-), Metabolic Activation: RAT, LIVER, S-9, AROCLOR 1254, Method: SUSPENSION/PLATE inactive; negative | Test System: MOUSE LYMPHOMA, Strain/Indicator: L5178Y (TK+/TK-), Metabolic Activation: RAT, LIVER, S-9, Method: SUSPENSION/PLATE inactive; negative
active: Test System: Mouse lymphoma, Strain/Indicator: L5178Y (tk+/tk-), Metabolic Activation: None, Method: Microwell active; positive. small colonies only.
